In this test the test system is TC71 Ewing sarcoma viability, CellTiter-Glo ATP, 72 h. The experiment in a line: TC71 Ewing sarcoma cell killing, confirmation, luminescence, cherry-picked samples, retest (AID 720570).

Regarding `C[C@@H]1CN([C@@H](C)CO)C(=O)Cc2cc(NC(=O)C3CCCCC3)ccc2O[C@H]1CN(C)Cc1ccc(C(=O)Nc2ccccc2N)cc1`, the AC35 is 15.6 µM.

On to `C[C@@H]1CN([C@@H](C)CO)C(=O)c2cccc(NC(=O)Nc3cccc4ccccc34)c2O[C@@H]1CN(C)Cc1ccc(C(=O)Nc2ccccc2N)cc1`, for which the AC35 was 10.8 µM.

On to `O=c1ccc2ccccc2c2ccccc12`, for which the AC35 was 10.5 µM.

Regarding `N/C(=C\C(=O)c1cc(Cl)ccc1O)C(Cl)(Cl)Cl`, the AC35 was 9.12 µM.

With `CN1C2CCC1/C(=C/c1ccccn1)C(=O)/C2=C\c1ccccn1`, the AC35 was 1.43 µM.

For the molecule `COC(=O)CC1(C(=O)OC)Oc2ccc(Br)cc2C(=O)N1c1cccc(Cl)c1Cl` (stereo not drawn), the AC35 is 24.9 µM.

On to `O=C1/C(=C\c2ccccc2)CN(C(=O)CCN2CCCCC2)C/C1=C/c1ccccc1`, for which the AC35 was 4.22 µM.

Take `C[C@@H]1CN([C@H](C)CO)C(=O)c2cc(C#CCN(C)C)cnc2O[C@H]1CN(C)Cc1ccc(-c2ccccc2)cc1`: the AC35 was 22.2 µM.

Take `Cc1cccc(NC(=O)CN2CCN(C(=O)CNC(=O)c3ccc(-c4ccccc4)cc3)CC2)c1C`: the AC35 was 8.9 µM.

For `CN1C(=O)c2cc(NC(=O)c3ccc(Cl)cc3)ccc2OC[C@@H]2O[C@@H](CC(=O)NCc3cccc(F)c3)CC[C@H]21`, the AC35 was 5.21 µM.

With `N#CC1=C(N)Oc2cc(N)ccc2C1c1cccc(Br)c1` (stereo not drawn), the AC35 was 0.845 µM.

In the case of `O=C(NC[C@@H]1N[C@@H](CO)[C@H]1c1ccc(C2=CCCCC2)cc1)c1cccc(F)c1`, the AC35 was 12.3 µM.

Turning to `CN(C)c1ccc(-c2ccnc3c2CC(C)(C(=O)NCc2ccco2)O3)cc1` (stereo not drawn), the AC35 is 10.4 µM.

`COc1cc2c(cc1OC)C(C)N(C(=O)c1cc(Cl)nc(Cl)c1)CC2` (stereo not drawn): the AC35 was 11.9 µM.

On to `C[C@@H]1CN([C@@H](C)CO)C(=O)c2cc(N(C)C)ccc2O[C@H]1CN(C)Cc1ccc(C(=O)Nc2ccccc2N)cc1`, for which the AC35 was 22 µM.

In the case of `COc1ccc(CCCNC(=O)C2Cc3c(-c4ccc5c(c4)OCO5)ccnc3O2)cc1` (stereo not drawn), the AC35 is 3.47 µM.

In the case of `Nc1ccc(Cn2ccc3c4c(N)nc(N)nc4ccc32)cc1`, the AC35 is 0.0342 µM.

For the molecule `CCCc1cc(=O)oc2c3c(c4c(c12)OC(C)(C)C=C4)OC(C)C(C)C3O` (stereo not drawn), the AC35 is 22.6 µM.

Turning to `Cc1nc(N)nc(N)c1-c1ccc(Cl)c(Cl)c1`, the AC35 was 0.714 µM.

In the case of `Cc1noc(C)c1C(=O)Nc1sccc1C(N)=O`, the AC35 was 13.6 µM.

For the molecule `COc1ccc(C2=Nn3c(nnc3-c3ccccc3OC)SC2)cc1OCC1CC1`, the AC35 is 6.68 µM.

For `CC1OC(OC2CC(O)C3(CO)C4C(O)CC5(C)C(C6=CC(=O)OC6)CCC5(O)C4CCC3(O)C2)C(O)C(O)C1O` (stereo not drawn), the AC35 is 0.173 µM.

Regarding `CN(C)c1ncnc2c1ccn2C1OC(CO)C(O)C1O` (stereo not drawn), the AC35 was 7.06 µM.

Take `Cc1ccc(OCCNC(=O)c2cccc(S(=O)(=O)NCc3ccccc3)c2)cc1`: the AC35 was 6.35 µM.

For `CC(=O)N1CCCC(c2cc(C(=O)Nc3ccccc3)no2)C1` (stereo not drawn), the AC35 was 12.7 µM.

As for `COc1cc(-c2noc(C)c2C#Cc2nccn2C)cc(OC)c1OC`, the AC35 is 13.1 µM.

`COc1cccc(-c2cc(NC=O)c3ncc(-c4ccc(C(C)=O)cc4)n3c2)c1`: the AC35 is 1.78 µM.

Regarding `C[C@@H]1CN([C@@H](C)CO)C(=O)Cc2cc(N(C)C)ccc2O[C@@H]1CN(C)Cc1ccccc1`, the AC35 was 17.7 µM.

`C(=Cc1cnc2ccccc2n1)c1ccc2c(c1)OCO2`: the AC35 was 15.2 µM.

For `CN(C[C@H]1N[C@@H](CO)[C@@H]1c1ccc(C2=CCCC2)cc1)C(=O)c1cccc(F)c1`, the AC35 was 3.82 µM.

Consider `COc1ccc(-c2ccc3c(c2)[C@H]2[C@H](CCN2S(=O)(=O)c2ccc(OC)cc2)[C@@H](CO)N3C)cc1`, for which the AC35 was 4.48 µM.

`Cc1[nH]c(=S)sc1Cc1ccc(Cl)c(Cl)c1`: the AC35 is 0.898 µM.

For `CC(C)(C)C(=O)Cn1ncc(Cl)c(Cl)c1=O`, the AC35 was 7.6 µM.

For `CCc1ccc(S(=O)(=O)c2ccc(-n3nc(C)cc3N)cc2)cc1`, the AC35 was 19.4 µM.

For the molecule `C(=Cc1c[nH]c2ccccc12)c1ccc2ccccc2n1`, the AC35 is 3.86 µM.

With `O=c1[nH]c(=O)n([C@H]2C[C@H](O)[C@@H](CO)O2)cc1F`, the AC35 is 0.282 µM.

With `COc1ccc(C(C)(O)c2nc(-c3cccc(F)c3)cs2)cc1` (stereo not drawn), the AC35 is 12.8 µM.

`O=C(O)c1ccc(N/N=C/c2ccc3nccnc3c2)cc1`: the AC35 was 16.3 µM.

Regarding `N#C[C@H]1N[C@H](CO)[C@H]1c1ccc(C#Cc2ccc(F)cc2)cc1`, the AC35 is 18.3 µM.

On to `C[C@H]1CN([C@@H](C)CO)C(=O)c2cc(NS(=O)(=O)c3ccc(Cl)cc3)ccc2O[C@H]1CN(C)Cc1ccc(Cl)c(Cl)c1`, for which the AC35 is 20.3 µM.

As to `C[C@@H]1CN([C@H](C)CO)C(=O)c2cc(NC(=O)c3ccccc3)ccc2O[C@@H](C)CCCCO[C@H]1CN(C)C(=O)Nc1cccc2ccccc12`, the AC35 was 1.58 µM.

Consider `COC1C(O)C(C)OC(OC2CCC3(C)C(CCC4C3C(O)CC3(C)C(C5=CC(=O)OC5)CCC43O)C2)C1O` (stereo not drawn), for which the AC35 is 0.699 µM.

In the case of `Nc1ncn([C@@H]2O[C@H](CO)[C@@H](O)[C@H]2O)c(=O)n1`, the AC35 is 11.7 µM.

On to `O=C(Nc1cccc(S(=O)(=O)N2CCCC2)c1)c1ccc(Cl)nc1`, for which the AC35 is 14 µM.

Take `Cc1cc(-c2nc3cc(F)ccc3s2)ccc1N`: the AC35 was 14.2 µM.

Take `O=C1NC(=O)N(c2ccccc2)C(=O)/C1=C\C=C\c1ccccc1`: the AC35 is 12.6 µM.

`CCOc1ccc(OCc2ccc(C(=O)NN=Cc3ccc[nH]3)cc2)cc1`: the AC35 was 0.504 µM.

`C=C1C(=O)OC2C1CCC(C)C1(O)C=CC(=O)C21C` (stereo not drawn): the AC35 is 12.6 µM.

Regarding `CCOc1ccc2nc(NC3=NC(c4ccc(OC)cc4)CC(=O)N3)nc(C)c2c1` (stereo not drawn), the AC35 was 20.9 µM.

`O=C1NC(=O)N(Cc2ccco2)C(=O)/C1=C/C=C/c1ccco1`: the AC35 was 12.5 µM.

Turning to `O=C(c1nnsc1S(=O)c1ccc(Cl)cc1)N1CCOCC1` (stereo not drawn), the AC35 is 21.9 µM.

Regarding `C[C@H]1CN([C@@H](C)CO)C(=O)c2cc(N(C)C)ccc2O[C@H]1CN(C)Cc1ccc(C(=O)Nc2ccccc2N)cc1`, the AC35 was 12.1 µM.

On to `COc1ccc(C(CCNCc2ccc(OC(C)C)cc2)C(C)C)cc1` (stereo not drawn), for which the AC35 is 21.8 µM.

In the case of `Nc1ccn([C@@H]2O[C@H](CO)[C@@H](O)C2O)c(=O)n1` (stereo partly drawn), the AC35 was 1.22 µM.

With `C=C1C(=O)OC2C1CCC(C)C1C=CC(=O)C12C` (stereo not drawn), the AC35 is 13.8 µM.

On to `CCN1CCS/C1=C\C=C\C1=[N+](CC)CCS1`, for which the AC35 is 9.96 µM.

For `CC(C)N1C/C(=C/c2ccsc2)C(=O)/C(=C/c2ccsc2)C1`, the AC35 is 14 µM.

Turning to `C[C@@H]1CN([C@@H](C)CO)C(=O)c2cc(NS(=O)(=O)c3ccccc3)ccc2O[C@@H]1CN(C)Cc1ccc(C(=O)Nc2ccccc2N)cc1`, the AC35 was 10.2 µM.

Regarding `Cc1nn(Cc2ccccc2Cl)c2sc(C(=O)Nc3ccccc3N3CCOCC3)cc12`, the AC35 is 13.2 µM.

As for `CC(=O)OC1CC(OC2C(O)CC(OC3C(O)CC(OC4CCC5(C)C(CCC6C5CCC5(C)C(C7=CC(=O)OC7)C(O)CC65O)C4)OC3C)OC2C)OC(C)C1OC1OC(CO)C(O)C(O)C1O` (stereo not drawn), the AC35 was 2.35 µM.

Consider `COc1ccc(S(=O)(=O)N2CCCc3nc(-c4ccc(F)cc4)ccc32)cc1`, for which the AC35 is 7.3 µM.

In the case of `COc1ccc([Si](C)(C)[C@H]2[C@H](CCO)O[C@@]3(C(=O)N(c4ccccc4)c4ccccc43)[C@@H]2C)cc1`, the AC35 was 12.8 µM.

Turning to `C[C@@H]1CN([C@H](C)CO)C(=O)c2cc(N(C)C)ccc2O[C@H]1CN(C)Cc1ccc(C(=O)Nc2ccccc2N)cc1`, the AC35 is 12.5 µM.

Regarding `CN(C)CC1CCC/C(=C\c2ccc(OC(=O)c3ccc(Cl)cc3)cc2)C1=O` (stereo not drawn), the AC35 is 3.4 µM.

`CCCCc1c(Cc2ccccc2)ncn1CCc1ccccc1OC`: the AC35 was 14.4 µM.

For `N#CC(C#N)=C1C=CC=CN1/C(=C\c1ccco1)C(=O)c1ccc(Cl)cc1`, the AC35 was 8.19 µM.

As to `Cc1cc(C(=O)Nc2ccc3c(c2)C(=O)N(C)[C@@H]2CC[C@@H](CC(=O)NCc4ccc(-c5ccccc5)cc4)O[C@H]2CO3)no1`, the AC35 is 6.73 µM.

Turning to `CC(=O)ON=C1C=CC(=C(C#N)c2ccccc2)C=C1`, the AC35 is 6.03 µM.

With `O=c1cc(-c2ccccc2)oc2ccc3ccccc3c12`, the AC35 is 10.7 µM.

On to `COc1ccc(/C=C/C(=O)c2ccc(C(=O)/C=C/c3ccc(OC)c(OC)c3)cc2)cc1OC`, for which the AC35 was 20.4 µM.

Turning to `CCCCCCCN(c1ccccc1)[C@@H]1C[C@H]2CCCC(=O)N3CC[C@@H](C1)[C@@H]23`, the AC35 was 1.95 µM.

For the molecule `COc1ccc(NC(=S)N=Nc2c(O)[nH]c3ccccc23)cc1`, the AC35 was 20.1 µM.

In the case of `CCCCC[C@H](C)N1C[C@H](COCc2ccccc2)Oc2cc(N3CC[C@@H](N(C)C)C3)ccc2S1(=O)=O`, the AC35 was 14.2 µM.

As for `C[C@H]1CN([C@@H](C)CO)C(=O)Cc2cc(NC(=O)CCC(F)(F)F)ccc2O[C@H]1CN(C)Cc1ccc(C(=O)Nc2ccccc2N)cc1`, the AC35 was 9.19 µM.

On to `O=c1[nH]c(=O)n(C2C[C@H](O)[C@@H](CO)O2)cc1C(F)(F)F` (stereo partly drawn), for which the AC35 is 2.59 µM.

Turning to `COc1ccc(/C=C(/C(=O)c2cccs2)N2C=CC=CC2=C(C#N)C#N)cc1`, the AC35 was 24.6 µM.

`Cc1cccc(CN2C(=O)/C(=C\c3ccc(C(=O)NCCCN4CCN(C)CC4)cc3)Oc3ccccc32)c1`: the AC35 is 12.9 µM.

For `COc1cc(-c2cnc3c(NC=O)cc(-c4cccc(NC(C)=O)c4)cn23)cc(OC)c1OC`, the AC35 was 0.385 µM.

In the case of `C[C@@H]1O[C@@H](O[C@@H]2C=C3CC[C@@H]4C(CC[C@]5(C)[C@@H](c6ccc(=O)oc6)CC[C@]45O)[C@@]3(C)CC2)[C@H](O)[C@H](O)[C@H]1O` (stereo partly drawn), the AC35 is 0.0374 µM.

Turning to `C[C@@H]1CN([C@@H](C)CO)C(=O)c2cccc(NS(=O)(=O)c3ccc(F)cc3)c2O[C@@H]1CN(C)Cc1ccc(C(=O)Nc2ccccc2N)cc1`, the AC35 is 8.22 µM.

For `C[C@H]1CN([C@@H](C)CO)C(=O)c2cc(NS(=O)(=O)c3ccc(Cl)cc3)ccc2O[C@H]1CN(C)Cc1ccc(C(=O)Nc2ccccc2N)cc1`, the AC35 is 14.7 µM.

`Cc1ccc(S(=O)(=O)Nc2ccc3c(c2)C(=O)N([C@@H](C)CO)C[C@H](C)[C@@H](CN(C)Cc2ccc(C(F)(F)F)cc2)OCCCC[C@@H](C)O3)cc1`: the AC35 was 11.8 µM.

On to `CCN1C/C(=C/c2ccc(N3CCOCC3)cc2)C(=O)/C(=C/c2ccc(N3CCOCC3)cc2)C1`, for which the AC35 is 5.92 µM.

Values taken from PubChem BioAssay AID720570 (Broad Institute, 2013).
